Measurements reported in ChEMBL document CHEMBL1133310, “Naphthalene carboxamides as inhibitors of human cytomegalovirus DNA polymerase” (Bioorg Med Chem Lett, 2000).

target: T1, DNA polymerase alpha catalytic subunit (Homo sapiens, UniProt P09884); experiment: Compound was evaluated for the inhibitory activity against Human alpha polymerase; conditions: not given
T1 sequence (P09884 whole entry): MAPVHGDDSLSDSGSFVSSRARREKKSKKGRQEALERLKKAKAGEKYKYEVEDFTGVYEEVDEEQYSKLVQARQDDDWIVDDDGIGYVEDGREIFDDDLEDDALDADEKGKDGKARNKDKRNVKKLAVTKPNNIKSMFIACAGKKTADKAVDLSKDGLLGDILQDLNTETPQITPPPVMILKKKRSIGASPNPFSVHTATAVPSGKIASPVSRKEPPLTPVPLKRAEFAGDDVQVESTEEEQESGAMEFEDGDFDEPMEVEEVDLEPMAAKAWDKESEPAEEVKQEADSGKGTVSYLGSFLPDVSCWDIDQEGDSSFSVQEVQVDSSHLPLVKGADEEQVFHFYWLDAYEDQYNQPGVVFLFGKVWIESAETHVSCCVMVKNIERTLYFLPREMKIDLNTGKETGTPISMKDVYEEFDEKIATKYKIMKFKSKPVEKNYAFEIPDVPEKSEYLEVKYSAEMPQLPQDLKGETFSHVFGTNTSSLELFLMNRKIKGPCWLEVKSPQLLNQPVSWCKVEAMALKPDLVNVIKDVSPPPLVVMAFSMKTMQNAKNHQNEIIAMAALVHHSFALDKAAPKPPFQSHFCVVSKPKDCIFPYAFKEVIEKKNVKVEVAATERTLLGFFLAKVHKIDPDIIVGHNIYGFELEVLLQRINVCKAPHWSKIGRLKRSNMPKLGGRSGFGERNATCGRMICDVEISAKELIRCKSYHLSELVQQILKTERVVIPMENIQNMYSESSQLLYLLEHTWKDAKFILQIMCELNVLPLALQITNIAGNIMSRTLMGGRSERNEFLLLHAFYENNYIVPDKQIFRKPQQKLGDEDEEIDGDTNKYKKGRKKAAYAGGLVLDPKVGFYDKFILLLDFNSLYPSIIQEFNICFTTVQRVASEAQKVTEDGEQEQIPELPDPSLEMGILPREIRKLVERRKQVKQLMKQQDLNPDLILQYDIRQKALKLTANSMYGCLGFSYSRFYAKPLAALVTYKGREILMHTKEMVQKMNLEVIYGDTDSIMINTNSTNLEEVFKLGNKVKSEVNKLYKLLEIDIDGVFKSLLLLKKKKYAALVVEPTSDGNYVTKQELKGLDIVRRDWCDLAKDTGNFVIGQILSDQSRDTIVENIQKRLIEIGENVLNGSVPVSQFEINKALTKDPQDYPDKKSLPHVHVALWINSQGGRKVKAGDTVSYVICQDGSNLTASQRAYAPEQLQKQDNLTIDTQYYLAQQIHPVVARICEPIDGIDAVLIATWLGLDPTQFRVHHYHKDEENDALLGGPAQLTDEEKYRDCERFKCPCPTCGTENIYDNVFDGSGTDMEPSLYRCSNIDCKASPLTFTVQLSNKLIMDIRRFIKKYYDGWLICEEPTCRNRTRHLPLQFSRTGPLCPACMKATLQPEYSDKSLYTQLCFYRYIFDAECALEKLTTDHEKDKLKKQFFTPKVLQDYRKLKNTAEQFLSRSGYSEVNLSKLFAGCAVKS

IC50 [µM] | SMILES
32 | O=C(Nc1cccc([N+](=O)[O-])c1)c1cc2ccccc2cc1O

system: HFF; experiment: Antiviral activity in a cell-based plaque reduction assay, using an HFF cell line and the Davis strain of HCMV; assay type: functional; conditions: Homo sapiens

SMILES | IC50 [µM]
O=C(NCc1ccc(Cl)cc1)c1cc2cccc(O)c2cc1O | 0.6
COc1ccc2cc(O)c(C(=O)NCc3ccc([N+](=O)[O-])cc3)cc2c1 | 3.7
O=C(NCc1ccc(Cl)cc1)c1cc2cc(O)ccc2cc1O | 1
O=C(NCc1ccc(Cl)cc1)c1ccc2ccccc2c1O | > 20
COc1ccc2cc(O)c(C(=O)Nc3nc4c(Cl)cccc4s3)cc2c1 | > 5
O=C(NCCc1ccc(Cl)cc1)c1cc2ccccc2cc1O | > 20
O=C(NCc1ccc([N+](=O)[O-])cc1)c1cc2cccc(O)c2cc1O | 1.5
Nc1nc2c(ncn2COC(CO)CO)c(=O)[nH]1 [GANCICLOVIR] | 0.6
